Experimental data published in patent US20060241108A1, “Substituted phenoxazines and acridones as inhibitors of AKT” (St. Jude Children's Research Hospital, priority 2005, published 2006).
Read-outs that look alike come from different tables or passages of the source. Marks after values point to notes of the source that are not given here.

Assays:
[1] = target: T1, recombinant, full length AKT1/PKBα (Homo sapiens, UniProt P31749); assay: In vitro inhibition of recombinant AKT (GSK-3 fusion protein phosphorylation); format: biochemical; conditions: 5 μM, pre-incubated two hours on ice
T1 construct: active, recombinant, full length AKT1/PKBα protein; purchased Upstate Biotechnology, Lake Placid, N.Y
Description: In vitro inhibition of recombinant AKT. In vitro kinase assays can be performed using an active, recombinant, full length AKT1/PKBα protein (available from Upstate Biotechnology, Lake Placid, N.Y.) or with an active, recombinant AKT1/PKBα protein, referred to herein as AKT1ΔPH, that lacks the pleckstrin homology domain (also available from Upstate Biotechnology). 10 ng of the recombinant enzyme in 25 μl 1× kinase buffer (25 mM Tris, pH 7.5; 5 mM β-glycerol phosphate; 2 mM dithiothreitol; 0.1 mM Na3VO4; and 10 mM MgCl2) is mixed with 2.5 μl of DMSO and a test compound (5 μM). […] After incubating the suspensions at 30° C. for 30 minutes, the reaction can be terminated by the addition of 3×SDS sample buffer (187.5 mM Tris-HCl, pH 6.8; 6% SDS; 30% glycerol; 150 mM dithiothreitol; and 0.03% bromophenol blue). The samples are then boiled for five minutes. The proteins can be separated on a 12% SDS polyacrylamide gel, and subsequently transferred to a nitrocellulose membrane. The membranes are preferably incubated with rabbit polyclonal anti-phospho-GSK-3α/β (Ser21/9) antibody (available from Cell Signaling Technology, Beverly, Mass., catalog # 9331).
The phosphorylation status of GSK-3 protein can also be used to study the AKT inhibitory activity of phenoxazines (including the phenoxazine compounds listed in Table I above) and acridone compounds. […]

Rh1 cells [2] = conditions: 6.5 µM
Description: (§1) Determination of apoptosis. An ApoAlert™ Annexin V-FITC Apoptosis kit (available from Clontech, Palo Alto, Calif.) can be used to evaluate the extent of apoptosis within cell populations. Cells (Rh1: 350,000 per 75-cm^2 flask; Rh18: 800,000 per 75-cm^2 flask; or Rh30: 500,000 per 75-cm^2 flask) are preferably grown overnight in complete medium. On day 1, cells are treated with DMSO (0.1%; vehicle control) or with a test compound (e.g., a phenoxazine or acridone compound). After 4 days, the cells are trypsinized, washed with PBS, and resuspended in 200 μl of binding buffer. Cells are then incubated with 10 μl of annexin V-FITC (final concentration, 1 μg/ml) and 500 ng of propidium iodide in a final volume of 410 μl. Cells are preferably incubated at room temperature in the dark for ten minutes before flow cytometric analysis with an FACSCalibur™ Flow Cytometry System (Becton Dickinson, San Jose, Calif.).
(§2) For instance, Rh1, Rh18 and/or Rh30 cells can be grown in complete medium with 0.1% DMSO (as a negative control) or with one or more test compounds, e.g., any of the phenoxazine compounds listed in Table I, above, including but not limited to the compounds 10B, 11B, 13B, 14B or 15B. […] Cells are then harvested, and the extent of apoptosis evaluated, e.g., by an ApoAlert™ (Clontech, Palo Alto, Calif.) flow cytometric assay.

Rh18 cells = conditions: 7.5 µM
Description: as §1, §2

Rh30 cells = conditions: 7.5 µM
Description: as §1, §2

Rh1 cells [3] = assay: Determination of apoptosis (Annexin V-FITC/propidium iodide flow cytometry), Rh1 cells; conditions: Rh1, 6.5 μM, four days, n = 3
Description: as §1, §2

T1 sequence (P31749 whole entry, the tested form may be a part): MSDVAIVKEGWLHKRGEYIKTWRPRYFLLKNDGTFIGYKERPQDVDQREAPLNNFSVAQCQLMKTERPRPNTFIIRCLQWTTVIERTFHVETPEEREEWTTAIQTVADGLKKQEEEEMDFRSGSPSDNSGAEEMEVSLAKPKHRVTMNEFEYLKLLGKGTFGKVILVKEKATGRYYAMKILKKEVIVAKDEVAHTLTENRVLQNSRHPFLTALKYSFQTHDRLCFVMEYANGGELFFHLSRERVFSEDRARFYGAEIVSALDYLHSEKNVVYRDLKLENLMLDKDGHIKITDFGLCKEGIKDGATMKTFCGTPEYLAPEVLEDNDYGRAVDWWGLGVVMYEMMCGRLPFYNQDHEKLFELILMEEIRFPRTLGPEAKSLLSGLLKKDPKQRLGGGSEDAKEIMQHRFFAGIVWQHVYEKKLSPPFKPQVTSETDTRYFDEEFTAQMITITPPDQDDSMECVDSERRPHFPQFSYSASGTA

Compound	inhibition of GSK-3 phosphorylation by recombinant AKT [1]	Percentage of cells ± SD, Viable (Rh1 cells [2])	Percentage of cells ± SD, Viable (Rh18 cells) [%]	Percentage of cells ± SD, Viable (Rh30 cells)	Percentage of cells ± SD, Viable (Rh1 cells [3]) [%]
10-[4′-[(β-hydroxyethyl)piperazino]butyl]-2-chlorophenoxazine [Compound 15B]	completely blocked	23.33 ± 8.66^d %	67.00 ± 7.48	11.00 ± 2.16^d %	–
CCN(CC)CCCCN1c2ccccc2Oc2ccc(Cl)cc21 [Compound 10B, 10-[4′-(N-diethylamino)butyl]-2-chlorophenoxazine]	at least nearly complete	–	–	–	47.70 ± 7.90
